Measurements reported in patent US20260165976A1, “ANTI-EVAPORATIVE LIPID FORMULATIONS” (UNIVERSITY OF HELSINKI, priority 2022, published 2026).
“Also recorded” adds a separate entry of the source.

Assays:
Type in all cases: physicochemical
[1] = Evaporation resistance / evaporation reduction of lipid films (modified Langmuir and Schaefer method); conditions: for evaporation resistance of OAHFA films: individual lipid film on PBS subphase, 35±1° C., FIG. 2; for evaporation resistance of phospholipid films: FIG. 13C
Experimental: (§1) The lipid components and tailored mixtures dissolved in chloroform, or alternatively, the formulations undergoing characterization studies were spread onto the air-buffer interface of a Langmuir trough, either a Mini trough (KSV, Helsinki, Finland) or a Large trough (KSV NIMA, Biolin Scientific, Espoo, Finland), which was filled with PBS buffer. The samples were allowed to equilibrate for 3 min before starting the measurements. The surface pressure was measured using a Wilhelmy plate, the surface potential was measured using a KSV NIMA Surface Potential Sensor (Espoo, Finland) when relevant and Brewster angle microscopy (BAM) images were captured using a KSV NIMA microBAM (Espoo, Finland) instrument. The films were compressed at a constant rate of 5 or 10 mm/min and the subphase temperature was maintained at 35±1° C. The measurements were performed in an acrylic box under an ozone-free atmosphere to prevent undesired oxidation of the lipids. An ozone-free atmosphere was generated by passing dry air through ODS-3P ozone destruct unit (Ozone solutions, Hull, Iowa) and into the enclosure at a rate of 76 l/min.
The adaptive features of the formulations were uncovered through studying the spreading capabilities of the lipid films over compression-expansion cycles using the Langmuir setup. In more detail, the volume employed of each formulation was the volume required to observe a response in the surface pressure isotherm over one compression-expansion cycle. Altogether, the films were subjected to twenty compression-expansion cycles employing a 50 mm/min. compression/expansion rate and the changes in the surface pressure isotherms were monitored as described above. Evaporation resistance was determined by a modified Langmuir and Schaefer method (Langmuir et al, 1943, J Franklin Inst, 235, 119-162). The measurements were conducted by compressing the film to a specific mean molecular area, ranging between 2-40 Å^2/molecule (for individual compounds), or a specified area (for formulations) and placing a tailored desiccant cartridge, with a water-permeable membrane, approximately 2 mm above the aqueous surface. The commercial silica gel containing desiccant cartridges (SP Industries, Warminster, PA) were modified by replacing the membrane with a Millipore Immobilon-P PVDF membrane (450 nm pore size, Bedford, MA). The desiccant cartridge was fixed in position for 5 minutes and the mass of the absorbed water was determined by gravimetric techniques. In order to take into account the water absorbed from the air inside the enclosure, a second background measurement was conducted in parallel inside the enclosed acrylic box. From the measurements, the evaporation resistance was calculated with the equation (1).
The terms used in the equation are as follows: Adesicant=area of the desiccant cartridge; • t=measuring time; (w-w0)=water concentration difference between the aqueous surface and the surface of the desiccant cartridge; m(I)=water amount absorbed in the presence of the lipid film; mPBS(0)=water amount absorbed in the absence of the lipid film; Δmtot=mass of evaporated water during the measurement; ti=time point D=diffusion coefficient; ρ=water density; ATrough=area of the Langmuir Trough.
The evaporation reduction was determined as the total reduction of water absorbed by a desiccant cartridge when a lipid film was covering the subphase versus the situation when the lipid film was absent. Equation (2) was utilized in the calculations.

[2] = Surface pressure isotherms and Brewster angle microscopy of films on a Langmuir trough; conditions: PBS subphase, 35±1° C.
Experimental: as §1

[3] = Differential scanning calorimetry (DSC) of active components, phospholipids and liposomal formulations; conditions: heating 10° C./min, triplicate; for Peak Tm1 ± SD / Onset Tm2 ± SD / Peak Tm2 ± SD: in °C (unit assumed)
Experimental: Differential scanning calorimetry (DSC 2500 with an RCS90 cooling unit; TA instruments, Newcastle, DE, USA) was utilized to study the thermal properties of the active compounds. Nitrogen (N2) was utilized as the purge gas at rate of 50 mL/min during the measurements. […] of the active components were placed into aluminum pans with manually made pin holes (DSC Consumables incorporated, Austin, Minnesota, USA). The samples were subsequently sealed and analyzed with DSC utilizing the TRIOS® software (TA instruments, Newcastle, DE, USA). All results were compared to an empty reference pan containing a pin hole. Each measurement was performed in triplicate. Briefly, the samples were cooled to 0° C., then heated from 0° C. to 75° C. at a rate of 10° C./min. Then, the samples were kept isothermally at 75° C. for 10 min, after which they were equilibrated to −50° C. at an uncontrolled rate. Ultimately, the samples were heated again to 75° C. at a rate of 10° C./min.
The phospholipid bilayer phase transition behavior was studied to assess whether successful integration of the active components into the phospholipid bilayer had been achieved or not. The studies were performed in a similar fashion as described for active components above. In this case, 20 μL of a formulation was pipetted into the aluminum pans (DSC Consumables incorporated, Austin, Minnesota, USA), which were subsequently sealed and analyzed with DSC employing the TRIOS® software (TA instruments, Newcastle, DE, USA). The samples were cooled and equilibrated to 5° C., then heated from 5° C. to 70-85° C. at a rate of 10° C./min and the results were compared to the reference pan containing the liquid used to hydrate the lipid film. All prepared liposomal formulations which viscosity were low enough to be pipetted, were analyzed by DSC and compared to the thermograms obtained from liposomes containing only the PC-component and the thermograms obtained for the active components.

| SMILES | evaporation resistance of OAHFA films [1] | Onset Tm1 ± SD [3] | Peak Tm1 ± SD [3] | also measured |
| --- | --- | --- | --- | --- |
| CCCCCCCC/C=C\CCCCCCCC(=O)OCCCCCCC/C=C\CCCCCCCCCCC(=O)O [20:1/18:1-OAHFA, (12Z)-20-(oleoyloxy)eicos-12-enoic acid] | significantly weaker evaporation-resistant properties |  |  | phase behaviour of the film (surface pressure isotherm, BAM) [2]: does not undergo a phase transition; surface activity / spreading ability [2]: surface active lipids |
| CCCCCCCC/C=C\CCCCCCCCOC(=O)CCCCCCCCCCCCCCCCCCC(=O)O [R-20:0/18:1-OAHFA, 20-(oleyloxy)-20-oxo-eicosanoic acid] | reasonable degree of evaporation resistance |  |  |  |
| CCCCCCCCCCCCCCCCCCCC(=O)OC[C@H](COP(=O)([O-])OCC[N+](C)(C)C)OC(=O)CCCCCCCCCCCCCCCCCCC [DAPC, 1,2-diarachidoyl-sn-glycero-3-phosphatidylcholine] |  | 63.04 ± 0.21 | 64.87 ± 0.05 |  |
| CCCCCCCCCCCCCCCCCC(=O)OC[C@H](COP(=O)([O-])OCC(O)CO)OC(=O)CCCCCCCCCCCCCCCCC.[Na+] (mixture of isomers) [18:0 PG, 1,2-distearoyl-sn-glycero-3-phospho-rac-(1-glycerol) sodium salt] |  |  |  | evaporation resistance of phospholipid films [1]: highest evaporation resistance; phase behaviour of the film (surface pressure isotherm, BAM) ([2]; sodium salt): suitable properties; also recorded: phase transition occurring at a low surface pressure |
| CCCCCCCCCCCCCCCCCCO [1-Octadecanol, octadecanol] |  | 56.49 ± 0.49 | 57.61 ± 0.22 | evaporation resistance of long chain fatty alcohols ([1]; FIG. 5): most promising species |
| CCCCCCCC/C=C\CCCCCCCC(=O)OCCCCCCCCCCCC(=O)O [12:0/18:1-OAHFA, 12-(oleoyloxy)dodecanoic acid] | significantly weaker evaporation-resistant properties |  |  |  |
| CCCCCCCC/C=C\CCCCCCCC(=O)OCCCCCCCCCCCCCCCCCCCCCC [BO, behenyl oleate] |  | 34.48 ± 0.05 | 36.74 ± 0.92 |  |
| CCCCCCCC/C=C\CCCCCCCC(=O)OCCCCCCCCCCCCCCC(=O)O [15:0/18:1-OAHFA, 15-(oleoyloxy)pentadecanoic acid] | significantly weaker evaporation-resistant properties |  |  |  |
| CCCCCCCC/C=C\CCCCCCCC(=O)OCCCCCCCCCCCCCCCCCCCCCC(=O)O [22:0/18:1-OAHFA, 22-(oleoyloxy)docosanoic acid] | reasonable degree of evaporation resistance |  |  |  |
| CCCCCCCC/C=C\CCCCCCCCOC(=O)CCCCCCCCCCCCCCCCC(=O)O [R-18:0/18:1-OAHFA, 18-(oleyloxy)-18-oxo-octadecanoic acid] | reasonable degree of evaporation resistance | 55.00 ± 0.87 | 57.53 ± 0.95 | Onset Tm2 ± SD [3]: 63.20 ± 0.28; Peak Tm2 ± SD [3]: 63.88 ± 0.14 |
| CCCCCCCCCCCCCC(=O)OC[C@H](COP(=O)([O-])OCC[N+](C)(C)C)OC(=O)CCCCCCCCCCCCC [DMPC, 1,2-dimyristoyl-sn-glycero-3-phosphocholine] |  | 17.37 ± 0.69 | 22.74 ± 1.57 |  |
| CCCCCCCCCCCCCCCC(=O)OC[C@H](COP(=O)(O)OCCN)OC(=O)CCCCCCCCCCCCCCC [16:0 PE, 1,2-dipalmitoyl-sn-glycero-3-phosphoethanolamine] |  |  |  | phase behaviour of the film (surface pressure isotherm, BAM) [2]: suitable properties |
| CCCCCCCC/C=C\CCCCCCCC(=O)OCCCCCCCCCCCCCCCCCCCC(=O)O [20:0/18:1-OAHFA, 20-(oleoyloxy)eicosanoic acid] | reasonable degree of evaporation resistance | 41.65 ± 1.16 | 46.54 ± 0.18 | Onset Tm2 ± SD [3]: 56.89 ± 1.42; Peak Tm2 ± SD [3]: 59.52 ± 0.38 |
| CCCCCCCC/C=C\CCCCCCCC(=O)OCCCCCCCCCCCCCCCCCC(=O)O [18:0/18:1-OAHFA, 18-(oleoyloxy)octadecanoic acid] | displays evaporation resistance; also recorded: highest evaporation resistance | 54.92 ± 0.87 | 56.50 ± 0.64 | phase behaviour of the film (surface pressure isotherm, BAM) [2]: does undergo a liquid to solid phase transition; surface activity / spreading ability [2]: surface active lipids |
| CCCCCCCCCCCCCCCCCC(=O)OC[C@H](COP(=O)(O)OC[C@H](N)C(=O)[O-])OC(=O)CCCCCCCCCCCCCCCCC.[Na+] [18:0 PS, 1,2-distearoyl-sn-glycero-3-phospho-L-serine (sodium salt)] |  |  |  | phase behaviour of the film (surface pressure isotherm, BAM) [2]: suitable properties |
| CCCCCCCC/C=C\CCCCCCCC(=O)OCCCCCCC/C=C\CCCCCCCCCCCCCCCCCCCC(=O)O [29:1/18:1-OAHFA, (21Z)-29-(oleoyloxy)nonacos-21-enoic acid] | reasonable degree of evaporation resistance |  |  |  |
| CCCCCCCCCCCCCCCCCC(=O)OC[C@H](COP(=O)(O)OCCN)OC(=O)CCCCCCCCCCCCCCCCC [18:0 PE, 1,2-distearoyl-sn-glycero-3-phosphoethanolamine] |  |  |  | evaporation resistance of phospholipid films [1]: highest evaporation resistance; phase behaviour of the film (surface pressure isotherm, BAM) [2]: suitable properties |
| CCCCCCCCCCCCCCCCCC(=O)OC[C@H](COP(=O)([O-])OCC[N+](C)(C)C)OC(=O)CCCCCCCCCCCCCCCCC [DSPC, 1,2-distearoyl-sn-glycero-3-phosphocholine] |  | 50.13 ± 0.29 | 54.67 ± 0.18 |  |
